Data on 31 compounds can be found in patent US20260035387A1 (BIOGEN MA INC., priority 2022, published 2026).

Molecules are shown by their SMILES.

In general, IC50 refers to the midpoint of a concentration-inhibition curve. Read a low IC50 as higher potency.

This test has as its system mutant Huntington (HTT) protein. Kind of test: HTT Mutant HTRF iPSC assay (mHTT protein lowering). It is filed as cell-based. As to conditions: human iPSC derived from a HTT patient with a poly-Q49 mutation. For orientation: Time-resolved FRET reads energy transfer from a long-lived donor to a nearby acceptor.
Compound `Cc1cn2cc(NC(=O)c3cc4ccc(N5CC(N(C)C)C6(CC6)C5)nc4s3)nc(C)c2n1` (stereo not shown) [Compound 211, 6-(7-(dimethylamino)-5-azaspiro[2.4]heptan-5-yl)-N-(2,8-dimethylimidazo[1,2-a]pyrazin-6-yl)thieno[2,3-b]pyridine-2-carboxamide] yielded a half-maximal inhibitory concentration (IC50) of less than 100 nM.
As for `Cc1cn2cc(NC(=O)c3cc4ccc(NC5CN(C)CC5F)nc4s3)nc(C)c2n1` (stereo not shown) [Compound 214, N-(2,8-dimethylimidazo[1,2-a]pyrazin-6-yl)-6-((4-fluoro-1-methylpyrrolidin-3-yl)amino)thieno[2,3-b]pyridine-2-carboxamide], the IC50 is less than 100 nM.
The compound `COc1cc2nn(C)cc2cc1NC(=O)c1cc2ccc(N3C[C@@H]4CN(C)C[C@@H]43)nc2s1` [Compound 216, N-(6-methoxy-2-methyl-2H-indazol-5-yl)-6-((1S,5R)-3-methyl-3,6-diazabicyclo[3.2.0]heptan-6-yl)thieno[2,3-b]pyridine-2-carboxamide] gave an IC50 of less than 100 nM.
The compound `Cc1cn2cc(NC(=O)c3cc4ccc(N5C[C@H]6CN(C)C[C@H]65)nc4s3)cc(F)c2n1` [Compound 217, N-(8-fluoro-2-methylimidazo[1,2-a]pyridin-6-yl)-6-((1R,5S)-3-methyl-3,6-diazabicyclo[3.2.0]heptan-6-yl)thieno[2,3-b]pyridine-2-carboxamide] displayed a half-maximal inhibitory concentration (IC50) of less than 100 nM.
Turning to `Cc1cn2cc(NC(=O)c3cc4ccc(N5C[C@H]6CN(C)C[C@H]65)nc4s3)nc(C)c2n1` [Compound 218, N-(2,8-dimethylimidazo[1,2-a]pyrazin-6-yl)-6-((1R,5S)-3-methyl-3,6-diazabicyclo[3.2.0]heptan-6-yl)thieno[2,3-b]pyridine-2-carboxamide], the half-maximal inhibitory concentration (IC50) was less than 100 nM.
For `CNC1CCN(c2ccc3cc(C(=O)Nc4cn5cc(C)nc5c(C)n4)sc3n2)C1` (stereo not shown) [Compound 219, N-(2,8-dimethylimidazo[1,2-a]pyrazin-6-yl)-6-(3-(methylamino)pyrrolidin-1-yl)thieno[2,3-b]pyridine-2-carboxamide] the value was less than 100 nM; for `CN[C@@H]1CCN(c2ccc3cc(C(=O)Nc4cc(OC)c5nc(C)cn5c4)sc3n2)C1` [Compound 220, (R)-N-(8-methoxy-2-methylimidazo[1,2-a]pyridin-6-yl)-6-(3-(methylamino)pyrrolidin-1-yl)thieno[2,3-b]pyridine-2-carboxamide], less than 100 nM; for `COc1cc2nn(C)cc2cc1NC(=O)c1cc2ccc(N3CCC4(CN(C)C4)C3)nc2s1` [Compound 221, N-(6-methoxy-2-methyl-2H-indazol-5-yl)-6-(2-methyl-2,6-diazaspiro[3.4]octan-6-yl)thieno[2,3-b]pyridine-2-carboxamide], less than 100 nM.
For `Cc1cn2cc(NC(=O)c3cc4ccc(N5CCC6(CN(C)C6)C5)nc4s3)nc(C)c2n1` [Compound 226, N-(2,8-dimethylimidazo[1,2-a]pyrazin-6-yl)-6-(2-methyl-2,6-diazaspiro[3.4]octan-6-yl)thieno[2,3-b]pyridine-2-carboxamide] the value was less than 100 nM.
The compound `Cc1cn2cc(NC(=O)c3cc4ccc(N5CCC(C)(N(C)C)C5)nc4s3)nc(C)c2n1` (stereo not shown) [Compound 227, 6-(3-(dimethylamino)-3-methylpyrrolidin-1-yl)-N-(2,8-dimethylimidazo[1,2-a]pyrazin-6-yl)thieno[2,3-b]pyridine-2-carboxamide] had a half-maximal inhibitory concentration (IC50) of less than 100 nM.
Next, `Cc1cn2cc(NC(=O)c3cc4ccc(N5CCC(N6CCC6)C5)nc4s3)nc(C)c2n1` (stereo not shown) [Compound 228, 6-(3-(azetidin-1-yl)pyrrolidin-1-yl)-N-(2,8-dimethylimidazo[1,2-a]pyrazin-6-yl)thieno[2,3-b]pyridine-2-carboxamide]: less than 100 nM.
In the case of `Cc1nc(NC(=O)c2cc3ccc(N4C[C@@H]5CN(C)C[C@@H]54)nc3s2)cc2cn(C)nc12` [Compound 229, N-(2,7-dimethyl-2H-pyrazolo[3,4-c]pyridin-5-yl)-6-((1S,5R)-3-methyl-3,6-diazabicyclo[3.2.0]heptan-6-yl)thieno[2,3-b]pyridine-2-carboxamide], the IC50 is less than 100 nM.
Take `Cc1nc(NC(=O)c2cc3ccc(N4CCC5(CCCN5C)C4)nc3s2)cc2cn(C)nc12` (stereo not shown) [Compound 230, N-(2,7-dimethyl-2H-pyrazolo[3,4-c]pyridin-5-yl)-6-(1-methyl-1,7-diazaspiro[4.4]nonan-7-yl)thieno[2,3-b]pyridine-2-carboxamide]: the half-maximal inhibitory concentration (IC50) was less than 100 nM.
Take `COc1cc2nn(C)cc2cc1NC(=O)c1cc2ccc(N3CC(N4CCC4)C3)nc2s1` [Compound 232, 6-([1,3′-biazetidin]-1′-yl)-N-(6-methoxy-2-methyl-2H-indazol-5-yl)thieno[2,3-b]pyridine-2-carboxamide]: the IC50 is less than 100 nM.
`Cc1cn2cc(NC(=O)c3cc4ccc(N5CCN(C(C)C)CC5)nc4s3)nc(C)c2n1` [Compound 233, N-(2,8-dimethylimidazo[1,2-a]pyrazin-6-yl)-6-(4-isopropylpiperazin-1-yl)thieno[2,3-b]pyridine-2-carboxamide] yielded an IC50 of less than 100 nM.
`COc1cc2nn(C)cc2cc1NC(=O)c1cc2ccc(N3CCC(N4CCC4)C3)nc2s1` (stereo not shown) [Compound 234, 6-(3-(azetidin-1-yl)pyrrolidin-1-yl)-N-(6-methoxy-2-methyl-2H-indazol-5-yl)thieno[2,3-b]pyridine-2-carboxamide]: the IC50 is less than 100 nM.
Consider `COc1c(NC(=O)c2cc3ccc(N4C[C@@H]5CN(C)C[C@@H]54)nc3s2)cc2cn(C)nc2c1F` [Compound 235, N-(7-fluoro-6-methoxy-2-methyl-2H-indazol-5-yl)-6-((1S,5R)-3-methyl-3,6-diazabicyclo[3.2.0]heptan-6-yl)thieno[2,3-b]pyridine-2-carboxamide], for which the IC50 is less than 100 nM.
For `COc1cc2nn(C)cc2cc1NC(=O)c1cc2ccc(N3CC4(CCCN4C)C3)nc2s1` [Compound 236, N-(6-methoxy-2-methyl-2H-indazol-5-yl)-6-(5-methyl-2,5-diazaspiro[3.4]octan-2-yl)thieno[2,3-b]pyridine-2-carboxamide], the concentration for half-maximal inhibition (IC50) is less than 100 nM.
For `Cc1cn2cc(NC(=O)c3cc4ccc(N5CC6CCNC6C5)nc4s3)cc(F)c2n1` (stereo not shown) [Compound 237, N-(8-fluoro-2-methylimidazo[1,2-a]pyridin-6-yl)-6-(hexahydropyrrolo[3,4-b]pyrrol-5(1H)-yl)thieno[2,3-b]pyridine-2-carboxamide] the value was less than 100 nM.
For `CNC1CCN(c2ccc3cc(C(=O)Nc4cc(F)c5nc(C)cn5c4)sc3n2)C1` (stereo not shown) [Compound 238, N-(8-fluoro-2-methylimidazo[1,2-a]pyridin-6-yl)-6-(3-(methylamino)pyrrolidin-1-yl)thieno[2,3-b]pyridine-2-carboxamide] the value was less than 100 nM; for `CCN1CCN(c2ccc3cc(C(=O)Nc4cn5cc(C)nc5c(C)n4)sc3n2)CC1` [Compound 240, N-(2,8-dimethylimidazo[1,2-a]pyrazin-6-yl)-6-(4-ethylpiperazin-1-yl)thieno[2,3-b]pyridine-2-carboxamide], less than 100 nM; for `Cc1cn2cc(NC(=O)c3cc4ccc(N5CC6CCC(C5)N6C)nc4s3)nc(C)c2n1` [Compound 243, N-(2,8-dimethylimidazo[1,2-a]pyrazin-6-yl)-6-(8-methyl-3,8-diazabicyclo[3.2.1]octan-3-yl)thieno[2,3-b]pyridine-2-carboxamide], less than 100 nM.
Turning to `Cc1cn2cc(NC(=O)c3cc4ccc(N5C[C@H]6CCN[C@H]6C5)nc4s3)cc(F)c2n1` [Compound 245, N-(8-fluoro-2-methylimidazo[1,2-a]pyridin-6-yl)-6-((3aR,6aR)-hexahydropyrrolo[3,4-b]pyrrol-5(1H)-yl)thieno[2,3-b]pyridine-2-carboxamide], the IC50 was less than 100 nM.
For `CN1CCC(c2ccc3nc(C(=O)Nc4cc(F)c5nn(C)cc5c4)sc3n2)CC1` [Compound 246, N-(7-fluoro-2-methyl-2H-indazol-5-yl)-5-(1-methylpiperidin-4-yl)thiazolo[5,4-b]pyridine-2-carboxamide], the 50% inhibitory concentration (IC50) was 100 to 1000 nM.
On to `CCN1CCN(c2cnc3cc(C(=O)Nc4cc5cn(C)nc5cc4OC)sc3n2)CC1` [Compound 247, 3-(4-ethylpiperazin-1-yl)-N-(6-methoxy-2-methyl-2H-indazol-5-yl)thieno[2,3-b]pyrazine-6-carboxamide], for which the IC50 was less than 100 nM.
Take `COc1cc2nn(C)cc2cc1NC(=O)c1cc2ncc(N3CCC4(CN(C)C4)C3)nc2s1` [Compound 248, N-(6-methoxy-2-methyl-2H-indazol-5-yl)-3-(2-methyl-2,6-diazaspiro[3.4]octan-6-yl)thieno[2,3-b]pyrazine-6-carboxamide]: the concentration for half-maximal inhibition (IC50) fell in the range of 100 to 1000 nM.
For `COc1c(NC(=O)c2cc3ccc(C4CCN(C)CC4)nc3s2)cc2cn(C)nc2c1F` [Compound 249, N-(7-fluoro-6-methoxy-2-methyl-2H-indazol-5-yl)-6-(1-methylpiperidin-4-yl)thieno[2,3-b]pyridine-2-carboxamide] the value was less than 100 nM; for `Cc1cn2cc(NC(=O)c3cc4ccc(N5CC[C@@H](N(C)C)C5)nc4s3)nc(C(F)F)c2n1` [Compound 250, (R)-N-(8-(difluoromethyl)-2-methylimidazo[1,2-a]pyrazin-6-yl)-6-(3-(dimethylamino)pyrrolidin-1-yl)thieno[2,3-b]pyridine-2-carboxamide], less than 100 nM.
`CCN1CCN(c2ccc3cc(C(=O)Nc4cn5cc(C)nc5c(C(F)F)n4)sc3n2)CC1` [Compound 253, N-(8-(difluoromethyl)-2-methylimidazo[1,2-a]pyrazin-6-yl)-6-(4-ethylpiperazin-1-yl)thieno[2,3-b]pyridine-2-carboxamide] gave an IC50 of less than 100 nM.
Next, `CCOc1cn2nc(C)cc2cc1NC(=O)c1cc2ccc(N3CC4(CCN(C)C4)C3)nc2s1` [Compound 256, N-(6-ethoxy-2-methylpyrazolo[1,5-a]pyridin-5-yl)-6-(6-methyl-2,6-diazaspiro[3.4]octan-2-yl)thieno[2,3-b]pyridine-2-carboxamide]: less than 100 nM; `Cc1cn2cc(NC(=O)c3cc4ncc(N5CCC6(CN(C)C6)C5)nc4s3)cc(F)c2n1` [Compound 257, N-(8-fluoro-2-methylimidazo[1,2-a]pyridin-6-yl)-3-(2-methyl-2,6-diazaspiro[3.4]octan-6-yl)thieno[2,3-b]pyrazine-6-carboxamide]: 100 to 1000 nM.
